According to article PMC9508125, “The evolutionary advantage of an aromatic clamp in plant family 3 glycoside exo-hydrolases” (Nature Communications, 2022):
Positions count from the first letter of the chain named. In names and notes the source's numbering stands.

Tests used:
Recombinant HvExoI W434H = assay: Inhibition by thio-analogues using the 4NP-Glc substrate; type: biochemical, Hordeum vulgare; conditions: for ΔG: calculated according to ∆G = -RT ln [1/Ki]
Procedure: (§1) Dependency of activities of WT and mutant HvExoI on pH (McIlvaine buffers in the pH range of 3.5–8.5 at 30 °C) and temperature (100 mM sodium acetate buffer, pH 5.25, temperature range 0–80 °C, 15 min incubations) were determined using 0.2% (w/v) 4NP-Glc[21],[59]. Relative rates of hydrolysis of β-linked poly-, oligosaccharides, and aryl-glucosides were determined using near-homogenous HvExoI at 50 pmoles. […] Kinetic parameters were calculated from the analyses of Michaelis-Menten plots with Grafit 7.0.3[62] and processed by a proportional weighted fit, using nonlinear regression. The relative rates of hydrolysis, kinetic, and inhibition data were rounded to one or two decimal points (Supplementary Tables 2–4).

Recombinant HvExoI W286F = assay: as above; type: biochemical, Hordeum vulgare; conditions: calculated according to ∆G = -RT ln [1/Ki]
Procedure: as §1

Recombinant HvExoI W434F = assay: as above; type: biochemical, Hordeum vulgare; conditions: for ΔG: calculated according to ∆G = -RT ln [1/Ki]
Procedure: as §1

Recombinant HvExoI W434Y = assay: as above; type: biochemical, Hordeum vulgare; conditions: calculated according to ∆G = -RT ln [1/Ki]
Procedure: as §1

Recombinant HvExoI W434A = assay: as above; type: biochemical, Hordeum vulgare; conditions: calculated according to ∆G = -RT ln [1/Ki]
Procedure: as §1

WT HvExoI [1] = molecular target: T1, WT HvExoI (Hordeum vulgare, UniProt Q9XEI3); assay: as above; type: biochemical; conditions: for ΔG: calculated according to ∆G = -RT ln [1/Ki]; for type of inhibition: WT HvExoI
T1 sequence (Q9XEI3 entry or part of it): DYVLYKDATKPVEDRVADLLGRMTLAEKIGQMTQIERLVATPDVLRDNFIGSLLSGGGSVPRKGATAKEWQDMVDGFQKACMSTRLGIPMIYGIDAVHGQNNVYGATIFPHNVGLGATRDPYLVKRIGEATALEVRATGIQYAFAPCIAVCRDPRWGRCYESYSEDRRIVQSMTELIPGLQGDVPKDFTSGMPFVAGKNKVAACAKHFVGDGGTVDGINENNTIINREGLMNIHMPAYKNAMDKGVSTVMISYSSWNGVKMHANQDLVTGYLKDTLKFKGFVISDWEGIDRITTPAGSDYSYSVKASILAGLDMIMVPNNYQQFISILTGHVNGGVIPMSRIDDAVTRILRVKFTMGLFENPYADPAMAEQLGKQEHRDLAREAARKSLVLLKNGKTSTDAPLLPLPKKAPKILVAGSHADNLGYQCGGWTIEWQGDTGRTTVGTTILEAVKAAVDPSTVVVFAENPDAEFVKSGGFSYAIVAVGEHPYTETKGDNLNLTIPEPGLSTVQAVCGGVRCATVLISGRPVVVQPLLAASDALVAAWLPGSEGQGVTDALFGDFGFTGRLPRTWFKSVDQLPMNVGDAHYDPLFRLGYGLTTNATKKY
Procedure: as §1

Native HvExoI = Native HvExoI (Hordeum vulgare, UniProt Q9XEI3); assay: as above; type: biochemical; conditions: for ΔG: calculated according to ∆G = -RT ln [1/Ki]; for Ki: apparent inhibition constant, 4NP-Glc substrate
Sequence of Native HvExoI (Q9XEI3 entry or part of it): as above
Procedure: as §1

Recombinant HvExoI W286Y = type: biochemical, Hordeum vulgare; conditions: calculated according to ∆G = -RT ln [1/Ki]
Procedure: as §1

WT HvExoI [2] = molecular target: T1, WT HvExoI; assay: Relative rates of hydrolysis of poly-, oligosaccharides and aryl-glycosides; type: biochemical; conditions: substance is the substrate, HvExoI at 50 pmoles, nd = activity not detected
Procedure: as §1

HvExoI W434H mutant = molecular target: T2, HvExoI W434H mutant (Hordeum vulgare, UniProt Q9XEI3, W459H); assay: as above; type: biochemical; conditions: substance is the substrate
T2 sequence (Q9XEI3 26-630 W459H): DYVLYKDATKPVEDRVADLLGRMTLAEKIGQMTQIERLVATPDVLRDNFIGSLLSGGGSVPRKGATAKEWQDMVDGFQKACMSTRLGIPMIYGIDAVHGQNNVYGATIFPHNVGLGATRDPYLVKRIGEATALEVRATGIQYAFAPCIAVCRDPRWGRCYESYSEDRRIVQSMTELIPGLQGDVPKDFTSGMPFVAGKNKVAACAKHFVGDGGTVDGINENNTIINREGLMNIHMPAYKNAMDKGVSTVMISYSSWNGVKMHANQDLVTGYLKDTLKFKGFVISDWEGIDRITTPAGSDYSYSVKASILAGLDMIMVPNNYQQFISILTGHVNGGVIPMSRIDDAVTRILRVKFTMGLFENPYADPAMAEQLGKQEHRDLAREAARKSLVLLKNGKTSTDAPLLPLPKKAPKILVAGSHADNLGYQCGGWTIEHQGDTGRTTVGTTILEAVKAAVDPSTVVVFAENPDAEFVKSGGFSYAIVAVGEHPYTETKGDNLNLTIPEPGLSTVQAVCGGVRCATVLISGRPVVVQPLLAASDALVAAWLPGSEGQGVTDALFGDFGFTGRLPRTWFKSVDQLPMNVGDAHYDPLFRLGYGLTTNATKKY
Procedure: as §1

HvExoI = molecular target: HvExoI; parameters: method as in PMID 8617814; conditions: transition state analogue; previous observations; cited from earlier work
[3] = molecular target: T3, HvExoI W286F/W434F mutant (Hordeum vulgare, UniProt Q9XEI3, W311F/W459F); assay: Relative rates of hydrolysis of poly-, oligosaccharides and aryl-glycosides; type: biochemical; conditions: substance is the substrate, nd = activity not detected
T3 sequence (Q9XEI3 26-630 W311F/W459F): T2 sequence (Q9XEI3 26-630 W459H) with W286F, H434F
Procedure: as §1

[4] = substrate: O=[N+]([O-])c1ccc(O[C@@H]2O[C@H](CO)[C@@H](O)[C@H](O)[C@H]2O)cc1; assay: Steady-state apparent kinetic constants with substrates; type: biochemical, Hordeum vulgare; conditions: substance is the substrate, pH 5.25, 30.0 °C
[5] = substrate: OC[C@H]1O[C@@H](O[C@H]2[C@H](O)[C@@H](CO)OC(O)[C@@H]2O)[C@H](O)[C@@H](O)[C@@H]1O; assay: as above; type: biochemical, Hordeum vulgare; conditions: substance is the substrate, pH 5.25, 30.0 °C

4-nitrophenyl 3-thio-laminaribioside [4NP-G3SG]
ΔG (Recombinant HvExoI W434H): -3.61 kcal/mol | ΔG (Recombinant HvExoI W286F): -4.37 kcal/mol | ΔG (Recombinant HvExoI W434F): -4.11 kcal/mol | ΔG (Recombinant HvExoI W434Y): -3.75 kcal/mol | ΔG (Recombinant HvExoI W434A): -3.92 kcal/mol | ΔG (WT HvExoI [1]; Recombinant WT): -4.37 kcal/mol | type of inhibition (WT HvExoI [1]): competitive inhibition | ΔG (Native HvExoI): -4.37 kcal/mol | ΔG (Recombinant HvExoI W286Y): -3.75 kcal/mol

O=[N+]([O-])c1ccc(O[C@@H]2O[C@H](CO)[C@@H](O[C@@H]3O[C@H](CO)[C@@H](O)[C@H](O)[C@H]3O)[C@H](O)[C@H]2O)cc1 [4NP-cellobioside]
Activity (relative rate of hydrolysis) (WT HvExoI [2]): 0.9 ± 0.01 μmole/min per mg protein | Activity (relative rate of hydrolysis) (HvExoI W434H mutant): 0.04 ± 0.001 μmole/min per mg protein

O=C1O[C@H](CO)[C@@H](O)[C@H](O)[C@H]1O [D-glucono−1,5-lactone]
Ki (HvExoI): 2.1 µM

CO[C@@H]1O[C@H](CO)[C@@H](O)[C@H](O)[C@H]1S[C@@H]1O[C@H](CO)[C@@H](O)[C@H](O)[C@H]1O [G2SG-OMe, methyl 2-thio-β-sophoroside]
ΔG (WT HvExoI [1]; Recombinant WT): -3.32 kcal/mol | ΔG (Native HvExoI): -3.75 kcal/mol

CO[C@@H]1O[C@H](CO)[C@@H](S[C@@H]2O[C@H](CO)[C@@H](O)[C@H](O)[C@H]2O)[C@H](O)[C@H]1O [G4SG-OMe, methyl 4-thio-β-cellobioside]
ΔG (Recombinant HvExoI W434H): -3.85 kcal/mol | ΔG (Recombinant HvExoI W286F): -3.75 kcal/mol | ΔG (Recombinant HvExoI W434F): -3.42 kcal/mol | ΔG (Recombinant HvExoI W434Y): -3.3 kcal/mol | ΔG (Recombinant HvExoI W434A): -3.68 kcal/mol | Ki (WT HvExoI [1]; Recombinant WT, apparent inhibition constant, 4NP-Glc substrate): 1000 µM | ΔG (WT HvExoI [1]; Recombinant WT): -4.16 kcal/mol | type of inhibition (WT HvExoI [1]): competitive inhibition | Ki (Native HvExoI): 1000 µM | ΔG (Native HvExoI): -4.16 kcal/mol | ΔG (Recombinant HvExoI W286Y): -3.68 kcal/mol

CO[C@@H]1O[C@H](CS[C@@H]2O[C@H](CO)[C@@H](O)[C@H](O)[C@H]2O)[C@@H](O)[C@H](O)[C@H]1O [G6SG-OMe, methyl 6-thio-β-gentiobioside]
fold higher Ki constant value compared to WT (Recombinant HvExoI W434H): 8 fold | ΔG (Recombinant HvExoI W434H): -4.3 kcal/mol | ΔG (Recombinant HvExoI W286F): -5.14 kcal/mol | fold higher Ki constant value compared to WT (Recombinant HvExoI W434F): 6 fold | ΔG (Recombinant HvExoI W434F): -4.47 kcal/mol | ΔG (Recombinant HvExoI W434Y): -4.88 kcal/mol | ΔG (WT HvExoI [1]; Recombinant WT): -5.09 kcal/mol | type of inhibition (WT HvExoI [1]): competitive inhibition | Ki (Native HvExoI): 100 µM | ΔG (Native HvExoI): -5.54 kcal/mol | ΔG (Recombinant HvExoI W286Y): -4.88 kcal/mol

lichenin
Activity (relative rate of hydrolysis) (WT HvExoI [2]): 0.8 ± 0.1 μmole/min per mg protein | Activity (relative rate of hydrolysis) [3]: 0.03 ± 0.001 μmole/min per mg protein | Activity (relative rate of hydrolysis) (HvExoI W434H mutant): 0.03 ± 0.01 μmole/min per mg protein

B1: HvExoI W286F/W434F mutant (Hordeum vulgare subsp. vulgare; W311F/W459F) (protein)
chain: T2 sequence (Q9XEI3 26-630 W459H) with W286F, H434F
Km ([4]; other: W286F/W434F): 600 ± 100 µM | kcat ([4]; other: W286F/W434F): 0.7 ± 0.02 s⁻¹ | kcat/Km ([4]; other: W286F/W434F): 1200 ± 200 M⁻¹ s⁻¹ | Km ([5]; other: W286F/W434F): 200 ± 20 µM | kcat ([5]; other: W286F/W434F): 0.5 ± 0.04 s⁻¹ | kcat/Km ([5]; other: W286F/W434F): 3000 ± 600 M⁻¹ s⁻¹

B2: HvExoI W286F/W434A mutant (Hordeum vulgare subsp. vulgare; W311F/W459A) (protein)
chain: T2 sequence (Q9XEI3 26-630 W459H) with W286F, H434A
Km ([4]; other: W286F/W434A): 700 ± 40 µM | kcat ([4]; other: W286F/W434A): 1.9 ± 0.1 s⁻¹ | kcat/Km ([4]; other: W286F/W434A): 2500 ± 200 M⁻¹ s⁻¹ | Km ([5]; other: W286F/W434A): 700 ± 200 µM | kcat ([5]; other: W286F/W434A): 0.2 ± 0.02 s⁻¹ | kcat/Km ([5]; other: W286F/W434A): 200 ± 30 M⁻¹ s⁻¹
